Reference: the supplement of paper PMC4932681

Key:
[1] = tested on: ZR-75-1 Tam2; assay: drug sensitivity score (DSS) (DSS (dimensionless)); higher = more sensitive; extreme values may be limits of the assay; settings: 4-OH-tamoxifen in medium 1 µM; 72 h
Procedure, shortened: (§1)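 Breast cancer cell lines and their resistant derivatives were seeded into 384-well plates holding FO2Baq library drugs at five concentrations spanning a 10 000-fold range. Resistant lines were in medium with 1 μM of the selecting drug. Cells were incubated 72 h at 37 °C, and CellTiter-Glo viability was read on a PHERAstar and normalised to vehicle-only and positive controls. Drug sensitivity score, relative IC50 (curve midpoint) and top-dose inhibition came from logistic dose–response fits (Breeze pipeline).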

[2] = tested on: BT-474; assay: as above; settings: 72 h
Procedure, shortened: as §1

[3] = tested on: T-47D Tam2; assay: as above; settings: 4-OH-tamoxifen in medium 1 µM; 72 h
Procedure, shortened: as §1

[4] = tested on: MCF-7; assay: as above; settings: 72 h
Procedure, shortened: as §1

[5] = tested on: T-47D; assay: as above; settings: 72 h
Procedure, shortened: as §1

[6] = tested on: T-47D Tam1; assay: as above; settings: 4-OH-tamoxifen in medium 1 µM; 72 h
Procedure, shortened: as §1

[7] = tested on: ZR-75-1 Tam1; assay: as above; settings: 4-OH-tamoxifen in medium 1 µM; 72 h
Procedure, shortened: as §1

[8] = tested on: BT-474 Tam1; assay: as above; settings: 4-OH-tamoxifen in medium 1 µM; 72 h
Procedure, shortened: as §1

[9] = tested on: MCF-7 Tam1; assay: as above; settings: 4-OH-tamoxifen in medium 1 µM; 72 h
Procedure, shortened: as §1

[10] = tested on: BT-474 Tam2; assay: as above; settings: 4-OH-tamoxifen in medium 1 µM; 72 h
Procedure, shortened: as §1

[11] = tested on: ZR-75-1; assay: as above; settings: 72 h
Procedure, shortened: as §1

[12] = tested on: ZR-75-1 Tam2; assay: relative IC50 (midpoint of fitted logistic curve, plateau may be below 50% inhibition; CellTiter-Glo viability); higher = less potent; settings: 4-OH-tamoxifen in medium 1 µM; 72 h
Procedure, shortened: as §1

[13] = tested on: BT-474; assay: as above; settings: 72 h
Procedure, shortened: as §1

[14] = tested on: T-47D Tam2; assay: as above; settings: 4-OH-tamoxifen in medium 1 µM; 72 h
Procedure, shortened: as §1

[15] = tested on: MCF-7; assay: as above; settings: 72 h
Procedure, shortened: as §1

[16] = tested on: T-47D; assay: as above; settings: 72 h
Procedure, shortened: as §1

[17] = tested on: ZR-75-1 Tam1; assay: as above; settings: 4-OH-tamoxifen in medium 1 µM; 72 h
Procedure, shortened: as §1

[18] = tested on: BT-474 Tam1; assay: as above; settings: 4-OH-tamoxifen in medium 1 µM; 72 h
Procedure, shortened: as §1

[19] = tested on: MCF-7 Tam1; assay: as above; settings: 4-OH-tamoxifen in medium 1 µM; 72 h
Procedure, shortened: as §1

[20] = tested on: BT-474 Tam2; assay: as above; settings: 4-OH-tamoxifen in medium 1 µM; 72 h
Procedure, shortened: as §1

[21] = tested on: ZR-75-1; assay: as above; settings: 72 h
Procedure, shortened: as §1

Compound	drug sensitivity score [1]	drug sensitivity score ([2]; 4-OH-tamoxifen in medium 0 µM)	drug sensitivity score ([2]; 4-OH-tamoxifen in medium 1 µM)	drug sensitivity score [3]	drug sensitivity score ([4]; 4-OH-tamoxifen in medium 0 µM)	drug sensitivity score ([4]; 4-OH-tamoxifen in medium 1 µM)	drug sensitivity score ([5]; 4-OH-tamoxifen in medium 0 µM)	drug sensitivity score ([5]; 4-OH-tamoxifen in medium 1 µM)	drug sensitivity score [6]	drug sensitivity score [7]	drug sensitivity score [8]	drug sensitivity score [9]	drug sensitivity score [10]	drug sensitivity score ([11]; 4-OH-tamoxifen in medium 0 µM)	drug sensitivity score ([11]; 4-OH-tamoxifen in medium 1 µM)	relative IC50 [12] [nM]	relative IC50 ([13]; 4-OH-tamoxifen in medium 0 µM) [nM]	relative IC50 [14] [nM]	relative IC50 ([15]; 4-OH-tamoxifen in medium 0 µM) [nM]	relative IC50 ([16]; 4-OH-tamoxifen in medium 0 µM) [nM]	relative IC50 [17] [nM]	relative IC50 [18] [nM]	relative IC50 [19] [nM]	relative IC50 [20] [nM]	relative IC50 ([21]; 4-OH-tamoxifen in medium 1 µM) [nM]	relative IC50 ([13]; 4-OH-tamoxifen in medium 1 µM) [nM]	relative IC50 ([15]; 4-OH-tamoxifen in medium 1 µM) [nM]	relative IC50 ([16]; 4-OH-tamoxifen in medium 1 µM) [nM]	relative IC50 ([21]; 4-OH-tamoxifen in medium 0 µM) [nM]
CCC1(c2ccc(N)cc2)CCC(=O)NC1=O (stereo not drawn) [Aminoglutethimide]	0	0	0.6	0	0	5.49	0	0.781	0	0	0	0	0	0	0	> 10000	> 10000	> 10000	> 10000	> 10000	> 10000	> 10000	> 10000	> 10000	> 10000				
COc1cc(Nc2ncc(F)c(Nc3ccc4c(n3)NC(=O)C(C)(C)O4)n2)cc(OC)c1OC [Tamatinib (R406)]	0	0	0	0	0	0	0	0	0.592	0	0	0	0	0	0	> 10000	> 10000	> 10000	> 10000	> 10000	> 10000	> 10000	> 10000	> 10000	> 10000	> 10000	> 10000	> 10000	> 10000
Cc1c(N)nc([C@H](CC(N)=O)NC[C@H](N)C(N)=O)nc1C(=O)N[C@H](C(=O)N[C@H](C)[C@@H](O)[C@H](C)C(=O)N[C@H](C(=O)NCCc1nc(-c2nc(C(=O)NCCC[S+](C)C)cs2)cs1)[C@@H](C)O)[C@@H](OC1OC(CO)C(O)C(O)C1OC1OC(CO)C(O)C(OC(N)=O)C1O)c1cnc[nH]1 (stereo partly drawn) [Bleomycin]	0	0	0	0	0.0343	0.0155	0.51	0	1.38	0.117	0	0	0	0.615	0	> 10000	> 10000	> 10000				> 10000	> 10000	> 10000	> 10000	> 10000		> 10000	
N#Cc1ccc(C(c2ccc(C#N)cc2)n2cncn2)cc1 [Letrozole]	0	0	0	0	0	0	0	11.1	2.88	0	0	0	0	0	0	> 10000	> 10000	> 10000	> 10000	> 10000	> 10000	> 10000	> 10000	> 10000	> 10000	> 10000	> 10000		> 10000
CCN1CCN(c2ccc(Nc3cc(N(C)C(=O)Nc4c(Cl)c(OC)cc(OC)c4Cl)ncn3)cc2)CC1 [NVP-BGJ398]	0	0	0	0	0	0	0	0	1.07	0	6.97	0	0	0	0	> 1000	> 1000	> 1000	> 1000	> 1000	> 1000		> 1000	> 1000	> 1000	> 1000	> 1000	> 1000	> 1000
C[C@]12CC[C@@H]3c4ccc(O)cc4C[C@@H](CCCCCCCCC[S+]([O-])CCCC(F)(F)C(F)(F)F)[C@H]3[C@@H]1CC[C@@H]2O (stereo partly drawn) [Fulvestrant]	0	0	0	0	7.84	0.235	0	5.21	0.0366	0	0	0	0	0	0	> 1000	> 1000	> 1000	6.43	> 1000	> 1000	> 1000	> 1000	> 1000	> 1000	> 1000		45	> 1000
CN1CCN(c2nc(C3=C(c4c[nH]c5ccccc45)C(=O)NC3=O)c3ccccc3n2)CC1 [Sotrastaurin]	0	0	10.6	0	0.517	0	0	0	0	0	6.13	0	1.44	0	0	> 10000	> 10000	> 10000		> 10000	> 10000	1540	> 10000		> 10000	51.5		> 10000	> 10000
CCN(CC)CCNC(=O)c1c(C)[nH]c(/C=C2\C(=O)Nc3ccc(F)cc32)c1C	0	0	1.81	0	0	0	0	0.383	0.199	0	0.118	0	0	0	0	> 1000	> 1000	> 1000	> 1000	> 1000	> 1000		> 1000	> 1000	> 1000	276	> 1000		> 1000
C/C(=C\c1csc(C)n1)[C@@H]1C[C@@H]2O[C@]2(C)CCC[C@H](C)[C@H](O)[C@@H](C)C(=O)C(C)(C)[C@@H](O)CC(=O)O1 [Patupilone  (Epothilone B)]	0	9.82	14.9	6.29	7.85	4.38	8.94	1.35	4.63	0	8.19	0	5.53	4.4	0	> 1000	20.1	14.7		9.51	> 1000	11.8	> 1000	29.7	> 1000	5.98		242	
CC(=O)O[C@@]12CO[C@@H]1C[C@H](O)[C@@]1(C)C(=O)[C@H](O)C3=C(C)[C@@H](OC(=O)[C@H](O)[C@@H](NC(=O)OC(C)(C)C)c4ccccc4)C[C@@](O)([C@@H](OC(=O)c4ccccc4)[C@H]21)C3(C)C [Docetaxel]	0	14	17.7	10.8	7.56	5.79	15.4	0	8.38	0	10	0	3.99	0.389	0	> 1000	3.76	4.21	1.23	1.76	> 1000	6.72	> 1000		> 1000	3.83		> 1000	
C/C(=C\c1csc(C)n1)[C@@H]1C[C@@H]2O[C@]2(C)CCC[C@H](C)[C@H](O)[C@@H](C)C(=O)C(C)(C)[C@@H](O)CC(=O)N1 [Ixabepilone]	0	0	1.39	2.1	0.882	1	1.7	0.538	0.349	0	0	0	0	0	0	> 1000	> 1000	229		415	> 1000	> 1000	> 1000	> 1000	> 1000	436			> 1000
CNC(=O)c1ccc(N2C(=S)N(c3ccc(C#N)c(C(F)(F)F)c3)C(=O)C2(C)C)cc1F [Enzalutamide (MDV 3100)]	0	0	0	0	0	0.74	0	0	0	0	0	0	0.634	0	0	> 10000	> 10000	> 10000	> 10000	> 10000	> 10000		> 10000		> 10000	> 10000		> 10000	> 10000
CC(=O)O[C@H]1C(=O)[C@@]2(C)[C@H]([C@H](OC(=O)c3ccccc3)[C@]3(O)C[C@H](OC(=O)[C@H](O)[C@@H](NC(=O)c4ccccc4)c4ccccc4)C(C)=C1C3(C)C)[C@]1(OC(C)=O)CO[C@@H]1C[C@@H]2O [Paclitaxel]	0	11.5	15.5	7.33	7.01	7.14	13	1.38	7.9	0	4.68	0	3.11	6.96	0	> 1000	8.49	10.9		5.91	> 1000	32.3	> 1000		> 1000	5.9	16.9		
CC[C@H](Nc1ncnc2[nH]cnc12)c1nc2cccc(F)c2c(=O)n1-c1ccccc1 [CAL-101]	5.82	0	0.147	2.66	2.04	0.584	0.0938	0.0607	0.811	4.88	0	0	0	4.36	4.39	1330	> 10000	1710			1140	> 10000	> 10000	> 10000	1210				1210
